One experiment concerns RAW264.7. Kind of experiment: Anti-inflammatory activity against mouse RAW264.7 cells assessed as inhibition of LPS-induced NO production.
Regarding `COc1ccc(/C=C/C(=O)C[C@H]2CC[C@]3(C)[C@H]4C(=O)C=C5[C@@H]6C[C@@](C)(C(=O)Oc7cn(C8O[C@@H](OC(C)=O)[C@@H](OC(C)=O)[C@@H](OC(C)=O)[C@@H]8OC(C)=O)nn7)CC[C@]6(C)CC[C@@]5(C)[C@]4(C)CC[C@H]3C2(C)C)cc1` (stereo not given in full), the IC50 (as a rule, the midpoint of a concentration-inhibition curve) was determined as 15.9 µM.

As to `COC(=O)C(Cc1c[nH]c2ccccc12)NC(=O)[C@@]1(C)CC[C@]2(C)CC[C@]3(C)C(=CC(=O)[C@@H]4[C@@]5(C)CCC(OC(=O)CCCCC6CCSS6)C(C)(C)[C@@H]5CC[C@]43C)[C@@H]2C1` (stereo not given in full), the IC50 was determined as 13.4 µM.

In the case of `CC1(C)[C@@H](OC(=O)CCC(=O)O)CC[C@]2(C)[C@H]3C(=O)C=C4[C@@H]5C[C@@](C)(C(=O)O)CC[C@]5(C)CC[C@@]4(C)[C@]3(C)CC[C@@H]12` [CARBENOXOLONE], the IC50 is 5 µM.

For the molecule `O=C(O[C@@H]1Cc2c(O)cc(O)cc2O[C@@H]1c1cc(O)c(O)c(O)c1)c1cc(O)c(O)c(O)c1` [EPIGALOCATECHIN GALLATE], the IC50 was below 1 µM.

A further experiment concerns the target T1, High mobility group protein B1 (Homo sapiens, UniProt P09429).
T1 sequence (P09429 whole entry): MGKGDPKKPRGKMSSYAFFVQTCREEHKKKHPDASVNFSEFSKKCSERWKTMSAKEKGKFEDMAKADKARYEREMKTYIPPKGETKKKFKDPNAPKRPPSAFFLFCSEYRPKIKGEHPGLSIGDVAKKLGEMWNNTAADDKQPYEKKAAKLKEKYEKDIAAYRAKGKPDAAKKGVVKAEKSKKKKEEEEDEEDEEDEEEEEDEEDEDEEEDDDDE
Description: Binding affinity to HMGB1 (unknown origin) assessed as dissociation constant by SPR analysis
Turning to `CO[C@H]1O[C@H](COS(=O)(=O)O)[C@@H](O[C@@H]2O[C@@H](C(=O)O)[C@@H](COC[C@H]3O[C@H](COS(=O)(=O)O)[C@@H](O[C@@H]4O[C@H](C(=O)O)[C@@H](COC[C@H]5O[C@H](COS(=O)(=O)O)[C@@H](O)[C@H](O)[C@H]5NS(=O)(=O)O)[C@H](O)[C@H]4O)[C@H](OS(=O)(=O)O)[C@H]3NS(=O)(=O)O)[C@H](O)[C@H]2OS(=O)(=O)O)[C@H](O)[C@H]1NS(=O)(=O)O`, binding was characterised by a dissociation constant (Kd) of 4.5 µM.

For the molecule `CC(=O)Oc1ccccc1C(=O)O` [ASPIRIN], binding was characterised by a dissociation constant (Kd) of 1 µM.

Take `COc1ccc(-c2coc3cc(O)ccc3c2=O)cc1O` [CALYCOSIN]: the Kd (as a rule, the concentration at which binding is half-saturated) worked out at 0.12 µM.

For `O=C(O)c1cc(-c2ccc(F)cc2F)ccc1O` [DIFLUNISAL], the Kd turned out to be 16 µM.

Turning to `O=c1c(O[C@@H]2O[C@H](CO)[C@@H](O)[C@H](O)[C@H]2O)c(-c2ccc(O)c(O)c2)oc2cc(O)cc(O)c12` [ISOQUERCETIN], the Kd came out at 0.1 µM.

Take `C[C@@H]1O[C@@H](OC[C@H]2O[C@@H](Oc3c(-c4ccc(O)c(O)c4)oc4cc(O)cc(O)c4c3=O)[C@H](O)[C@@H](O)[C@@H]2O)[C@H](O)[C@H](O)[C@H]1O` [RUTIN]: the Kd stood at 0.26 µM.
